pEC50, pIC50: −log10 of the molar value.
What was measured:
[1] = Inhibition of HCV genotype 1b NS3/4A protease A156T mutant using Ac-C(Eu)DDMEEAbu[COO]ASK(QSY7)-amide as substrate preincubated for 30 mins followed by substrate addition measured after 2.5 hrs by TRF assay; parameters: species or system Hepatitis C virus subtype 1b
[2] = Inhibition of HCV genotype 1b NS3/4A protease A156V mutant using Ac-C(Eu)DDMEEAbu[COO]ASK(QSY7)-amide as substrate preincubated for 30 mins followed by substrate addition measured after 2.5 hrs by TRF assay; parameters: species or system Hepatitis C virus subtype 1b
[3] = Inhibition of HCV genotype 1b NS3/4A protease D168Y mutant using Ac-C(Eu)DDMEEAbu[COO]ASK(QSY7)-amide as substrate preincubated for 30 mins followed by substrate addition measured after 2.5 hrs by TRF assay; parameters: species or system Hepatitis C virus subtype 1b
[4] = AUC (0 to 24 hrs) in rat at 5 mg/kg, po; assay type: ADME, organism-based; parameters: dose 5 mg/kg, time < 24 hr, route oral; settings: in vivo
[5] = Inhibition of HCV genotype 1a NS3/4A protease using Ac-C(Eu)DDMEEAbu[COO]ASK(QSY7)-amide as substrate preincubated for 30 mins followed by substrate addition measured after 2.5 hrs by TRF assay; parameters: species or system Hepatitis C virus subtype 1a
Hepatitis C virus [6] = assay: Antiviral activity against HCV genotype 1b infected in human HuH7 cells assessed as inhibition of viral replication after 72 hrs by RT-PCR method; assay type: functional, organism-based, Hepacivirus hominis; settings: Huh-7, 72 h
Hepatitis C virus [7] = assay: Antiviral activity against HCV genotype 2a infected in human HuH7 cells assessed as inhibition of viral replication after 72 hrs by RT-PCR method; assay type: functional, organism-based, Hepacivirus hominis; settings: Huh-7, 72 h
Hepatitis C virus [8] = assay: Antiviral activity against HCV genotype 2b infected in human HuH7 cells assessed as inhibition of viral replication after 72 hrs by RT-PCR method; assay type: functional, organism-based, Hepacivirus hominis; settings: Huh-7, 72 h
Hepatitis C virus [9] = assay: Antiviral activity against HCV genotype 3a infected in human HuH7 cells assessed as inhibition of viral replication after 72 hrs by RT-PCR method; assay type: functional, organism-based, Hepacivirus hominis; settings: Huh-7, 72 h
Hepatitis C virus [10] = assay: Antiviral activity against HCV genotype 1a infected in human HuH7 cells assessed as inhibition of viral replication after 72 hrs by RT-PCR method in presence of 100% normal human serum; assay type: functional, Hepacivirus hominis; settings: subtype 1a, Huh-7, 72 h
Hepatitis C virus [11] = assay: Antiviral activity against HCV genotype 1b infected in human HuH7 cells assessed as inhibition of viral replication after 72 hrs by RT-PCR method in presence of 100% normal human serum; assay type: functional, Hepacivirus hominis; settings: Huh-7, 72 h
Hepatitis C virus [12] = assay: Antiviral activity against HCV genotype 2a infected in human HuH7 cells assessed as inhibition of viral replication after 72 hrs by RT-PCR method in presence of 100% normal human serum; assay type: functional, Hepacivirus hominis; settings: Huh-7, 72 h
Hepatitis C virus [13] = assay: Antiviral activity against HCV genotype 3a infected in human HuH7 cells assessed as inhibition of viral replication after 72 hrs by RT-PCR method in presence of 100% normal human serum; assay type: functional, Hepacivirus hominis; settings: Huh-7, 72 h
[14] = Oral bioavailability in rat at 5 mg/kg; assay type: ADME, organism-based; settings: in vivo
Cytochrome P450 3A4 = Cytochrome P450 3A4 (Homo sapiens, UniProt P08684); assay: Inhibition of CYP3A4 (unknown origin) up to 50 uM; assay type: ADME
Cytochrome P450 2C9 = Cytochrome P450 2C9 (Homo sapiens, UniProt P11712); assay: Inhibition of CYP2C9 (unknown origin) up to 50 uM; assay type: ADME
Cytochrome P450 2D6 = Cytochrome P450 2D6 (Homo sapiens, UniProt P10635); assay: Inhibition of CYP2D6 (unknown origin) up to 50 uM; assay type: ADME
Salmonella typhimurium = assay: Mutagenicity in Salmonella typhimurium by Ames test; assay type: toxicity, organism-based; settings: salmonella enterica subsp. enterica serovar typhimurium
Cytochrome P450 2C8 = target: T1, Cytochrome P450 2C8 (Homo sapiens, UniProt P10632); assay: Inhibition of CYP2C8 (unknown origin) up to 20 uM; assay type: ADME
T1 sequence (P10632 whole entry): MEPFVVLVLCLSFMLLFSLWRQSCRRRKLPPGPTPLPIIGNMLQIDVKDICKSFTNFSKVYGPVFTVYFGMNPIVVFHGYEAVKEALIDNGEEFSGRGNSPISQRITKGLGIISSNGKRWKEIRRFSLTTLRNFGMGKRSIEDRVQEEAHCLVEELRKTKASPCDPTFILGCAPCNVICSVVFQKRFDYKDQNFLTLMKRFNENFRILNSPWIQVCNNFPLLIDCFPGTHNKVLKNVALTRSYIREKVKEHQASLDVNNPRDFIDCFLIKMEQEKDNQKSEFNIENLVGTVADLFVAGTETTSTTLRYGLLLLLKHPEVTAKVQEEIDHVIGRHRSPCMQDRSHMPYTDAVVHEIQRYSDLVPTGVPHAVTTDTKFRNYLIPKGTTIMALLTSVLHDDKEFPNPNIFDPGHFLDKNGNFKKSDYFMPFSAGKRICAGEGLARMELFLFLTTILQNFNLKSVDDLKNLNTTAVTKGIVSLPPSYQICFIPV

Rattus norvegicus [15] = assay: Toxicity in telemetered rat up to 40 mg/kg; assay type: organism-based; settings: in vivo
Canis familiaris [16] = assay: Toxicity in conscious telemetered dog assessed as effect on heart rate; assay type: organism-based, Canis lupus familiaris; settings: in vivo
Canis familiaris [17] = assay: Toxicity in conscious telemetered dog assessed as effect on blood pressure; assay type: organism-based, Canis lupus familiaris; settings: in vivo
Canis familiaris [18] = assay: Toxicity in conscious telemetered dog assessed as effect on ECG parameters; assay type: organism-based, Canis lupus familiaris; settings: in vivo
Canis familiaris [19] = assay: Toxicity in conscious telemetered dog assessed as effect on respiratory function; assay type: organism-based, Canis lupus familiaris; settings: in vivo
Canis familiaris [20] = assay: Toxicity in conscious telemetered dog assessed as effect on body temperature; assay type: organism-based, Canis lupus familiaris; settings: in vivo
Rattus norvegicus [21] = assay: Toxicity in rat at 40 mg/kg/day measured for 3 days of dosing; assay type: organism-based; settings: in vivo, 72 h
Liver = assay: Drug uptake in rat liver at 40 mg/kg/day; assay type: ADME, organism-based; settings: in vivo, read-out: Drug uptake
Rattus norvegicus [22] = assay: Hepatotoxicity in rat at 134 uM measured for 3 days of dosing; assay type: toxicity, organism-based; settings: in vivo, 72 h
[23] = Oral bioavailability in dog at 1 mg/kg; assay type: ADME, organism-based, Canis lupus familiaris; settings: in vivo
Rattus norvegicus [24] = species on record: Rattus norvegicus; assay: Protein binding in rat; assay type: ADME, organism-based; settings: in vivo
Canis familiaris [25] = species on record: Canis familiaris; assay: Protein binding in dog; assay type: ADME, organism-based, Canis lupus familiaris; settings: in vivo
Canis familiaris [26] = assay: Toxicity in telemetered dog up to 40 mg/kg; assay type: organism-based, Canis lupus familiaris; settings: in vivo
Hepatitis C virus [27] = assay: Antiviral activity against HCV genotype 1a infected in human HuH7 cells assessed as inhibition of viral replication after 72 hrs by RT-PCR method; assay type: functional, organism-based, Hepacivirus hominis; settings: subtype 1a, Huh-7, 72 h
[28] = Inhibition of HCV genotype 1b full length NS3/4A protease using Ac-C(Eu)DDMEEAbu[COO]ASK(QSY7)-amide as substrate preincubated for 30 mins followed by substrate addition measured after 2.5 hrs by TRF assay; parameters: species or system Hepatitis C virus subtype 1b
[29] = Inhibition of HCV genotype 3a full length NS3/4A protease using Ac-C(Eu)DDMEEAbu[COO]ASK(QSY7)-amide as substrate preincubated for 30 mins followed by substrate addition measured after 2.5 hrs by TRF assay; parameters: species or system Hepatitis C virus subtype 3a
[30] = target: Hepatitis C virus serine protease, NS3/NS4A (Hepatitis C virus, UniProt A3EZI9+D2K2A8, R155K); assay: Inhibition of HCV genotype 1b NS3/4A protease R155K mutant using Ac-C(Eu)DDMEEAbu[COO]ASK(QSY7)-amide as substrate preincubated for 30 mins followed by substrate addition measured after 2.5 hrs by TRF assay; parameters: species or system Hepatitis C virus subtype 1b
Hepatitis C virus [31] = assay: Antiviral activity against HCV genotype 1b harboring wild type NS3/4A protease infected in human HuH7 cells assessed as inhibition of viral replication after 72 hrs by RT-PCR method in presence of 10% fetal bovine serum; assay type: functional, organism-based, Hepacivirus hominis; settings: Huh-7, 72 h
Hepatitis C virus [32] = assay: Antiviral activity against HCV genotype 1b harboring NS3/4A protease R155K mutant infected in human HuH7 cells assessed as inhibition of viral replication after 72 hrs by RT-PCR method in presence of 10% fetal bovine serum; assay type: functional, organism-based, Hepacivirus hominis; settings: Huh-7, 72 h
Hepatitis C virus [33] = assay: Antiviral activity against HCV genotype 1b harboring NS3/4A protease A156T mutant infected in human HuH7 cells assessed as inhibition of viral replication after 72 hrs by RT-PCR method in presence of 10% fetal bovine serum; assay type: functional, organism-based, Hepacivirus hominis; settings: Huh-7, 72 h
Hepatitis C virus [34] = assay: Antiviral activity against HCV genotype 1b harboring NS3/4A protease D168Y mutant infected in human HuH7 cells assessed as inhibition of viral replication after 72 hrs by RT-PCR method in presence of 10% fetal bovine serum; assay type: functional, organism-based, Hepacivirus hominis; settings: Huh-7, 72 h
Hepatitis C virus [35] = assay: Antiviral activity against HCV genotype 1a harboring wild type NS3/4A protease infected in human HuH7 cells assessed as inhibition of viral replication after 72 hrs by RT-PCR method in presence of 10% fetal bovine serum; assay type: functional, organism-based, Hepacivirus hominis; settings: subtype 1a, Huh-7, 72 h
Hepatitis C virus [36] = assay: Antiviral activity against HCV genotype 1b harboring wild type NS3/4A protease infected in human HuH7 cells assessed as inhibition of viral replication after 72 hrs by RT-PCR method in presence of 10% normal human serum; assay type: functional, organism-based, Hepacivirus hominis; settings: Huh-7, 72 h

## COc1ccc2nc(C(F)(F)F)c3c(c2c1)CC[C@]1(C[C@H]2C(=O)N[C@]4(C(=O)NS(=O)(=O)C5(C)CC5)C[C@H]4/C=C\CCCCC[C@H](NC(=O)OCC(C)C)C(=O)N2C1)O3
[1]
  pIC50: 9.32
[2]
  pIC50: 8.56
[3]
  pIC50: 10.64
[4]
  AUC(0-t) at 24 h: 9 µM·h
[5]
  pIC50: 11.05
Hepatitis C virus [6]
  pEC50: 9.10
Hepatitis C virus [7]
  pEC50: 9.05
Hepatitis C virus [8]
  pEC50: 8.47
Hepatitis C virus [9]
  pEC50: 8.77
Hepatitis C virus [10]
  EC90: 68 nM
Hepatitis C virus [11]
  EC90: 20 nM
Hepatitis C virus [12]
  EC90: 60 nM
Hepatitis C virus [13]
  EC90: 90 nM
[14]
  bioavailability: 31%
Cytochrome P450 3A4
  inhibition (INH): Not Active
Cytochrome P450 2C9
  inhibition (INH): Not Active
Cytochrome P450 2D6
  inhibition (INH): Not Active
Salmonella typhimurium
  Activity: Non-toxic
Cytochrome P450 2C8
  inhibition (INH): Not Active
Rattus norvegicus [15]
  Activity: Non-toxic
Canis familiaris [16]
  Activity: Non-toxic
Canis familiaris [17]
  Activity: Non-toxic
Canis familiaris [18]
  Activity: Non-toxic
Canis familiaris [19]
  Activity: Non-toxic
Canis familiaris [20]
  Activity: Non-toxic
Rattus norvegicus [21]
  Activity: Non-toxic
Liver
  concentration: 134 µM
Rattus norvegicus [22]
  Activity: Non-toxic
[23]
  bioavailability: 17%
Rattus norvegicus [24]
  PB: Active
Canis familiaris [25]
  PB: Active
Canis familiaris [26]
  Activity: Non-toxic
Hepatitis C virus [27]
  pEC50: 9.15
[28]
  pIC50: 11.40
[29]
  pIC50: 9.39
[30]
  pIC50: 11.00

## C=C[C@@H]1C[C@]1(NC(=O)[C@@H]1C[C@]2(CCc3c(c(C)nc4ccccc34)O2)CN1C(=O)[C@@H](NC(=O)OC(C)(C)C)C(C)(C)C)C(=O)NS(=O)(=O)C1(C)CC1
[1]
  pIC50: 9.15
[2]
  pIC50: 8.57
[3]
  pIC50: 9.42
Hepatitis C virus [31]
  pEC50: 8.26
Hepatitis C virus [32]
  pEC50: 8.24
Hepatitis C virus [33]
  pEC50: 7.68
Hepatitis C virus [34]
  pEC50: 8.34
Hepatitis C virus [35]
  pEC50: 7.48
Hepatitis C virus [36]
  pEC50: 7.89
[28]
  pIC50: 10.48
[29]
  pIC50: 8.24
[30]
  pIC50: 10.34

## CC(C)(C)OC(=O)N[C@H]1CCCCC/C=C\[C@@H]2C[C@@]2(C(=O)NS(=O)(=O)C2(C)CC2)NC(=O)[C@@H]2C[C@]3(CCc4c(c(C5CC5)nc5ccccc45)O3)CN2C1=O
[4]
  AUC(0-t) at 24 h: 2 µM·h
[29]
  pIC50: 7.89

From ChEMBL document CHEMBL3785042, “Discovery of MK-8831, A Novel Spiro-Proline Macrocycle as a Pan-Genotypic HCV-NS3/4a Protease Inhibitor” (ACS Med Chem Lett, 2016)
